Results reported in patent US8193315B2 (Sanford-Burnham Medical Research Institute, priority 2001, dated 2012).
Entries after “also recorded” stand apart in the source; their conditions may differ. Where two headings read alike, the source gives them in different places.

What was measured:
Format in all cases: cell-based
[1] = molecular target: T1, NR1/NR3B receptors (Rattus norvegicus, UniProt P35439+Q8VHN2); assay: Glycine-evoked whole-oocyte currents of NR1/NR3B receptors, dual-electrode voltage clamp in Xenopus oocytes
T1 construct: Full-length cDNAs encoding NMDA receptor subunits were linearized and used as templates for synthesis of cRNA; expressed in transfected cells; host or cells: Xenopus laevis oocytes injected with cRNA
T1 sequence (Q8VHN2 25-1002, other chains not shown): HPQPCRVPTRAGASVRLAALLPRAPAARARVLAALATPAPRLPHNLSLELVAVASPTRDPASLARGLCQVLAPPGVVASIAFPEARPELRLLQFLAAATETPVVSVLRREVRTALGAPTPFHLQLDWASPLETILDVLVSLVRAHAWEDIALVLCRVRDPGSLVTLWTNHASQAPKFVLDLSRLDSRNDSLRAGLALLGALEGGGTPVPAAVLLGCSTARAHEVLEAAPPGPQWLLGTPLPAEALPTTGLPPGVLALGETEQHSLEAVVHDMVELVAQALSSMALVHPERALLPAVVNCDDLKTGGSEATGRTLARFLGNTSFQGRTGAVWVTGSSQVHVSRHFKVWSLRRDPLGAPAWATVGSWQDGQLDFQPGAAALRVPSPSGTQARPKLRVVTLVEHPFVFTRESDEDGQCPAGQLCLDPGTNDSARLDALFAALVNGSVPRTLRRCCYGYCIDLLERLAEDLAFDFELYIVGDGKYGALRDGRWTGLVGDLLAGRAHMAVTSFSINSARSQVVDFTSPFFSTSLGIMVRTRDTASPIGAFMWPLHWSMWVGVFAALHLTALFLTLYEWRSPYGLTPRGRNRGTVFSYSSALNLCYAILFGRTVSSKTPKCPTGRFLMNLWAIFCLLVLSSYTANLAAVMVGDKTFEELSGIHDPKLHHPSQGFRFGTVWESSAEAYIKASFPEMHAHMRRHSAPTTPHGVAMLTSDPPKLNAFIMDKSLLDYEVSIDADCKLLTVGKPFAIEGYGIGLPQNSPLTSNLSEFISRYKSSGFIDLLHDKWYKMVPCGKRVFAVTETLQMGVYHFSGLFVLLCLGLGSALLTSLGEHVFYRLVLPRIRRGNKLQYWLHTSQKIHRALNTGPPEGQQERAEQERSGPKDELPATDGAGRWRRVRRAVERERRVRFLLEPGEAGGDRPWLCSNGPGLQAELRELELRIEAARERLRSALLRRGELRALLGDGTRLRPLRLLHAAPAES
Source text: NR3B cRNA for oocyte expression was produced as follows. The full-length NR3B cDNA was constructed in the pCMV6-XL4 vector (OriGene Technologies, Inc., Rockville, Md.), which contains a T7 promoter upstream of the cDNA insert. […] The truncated cRNA could potentially encode a dominant negative form of NR3B. Therefore, a new vector was constructed to facilitate production of exclusively full-length NR3B cRNA. Construction of this vector proceeded as follows. NR1 cDNA was excised from the pGEM-HE/NR1 vector (a gift from S. F. Heinemann) by digestion with EcoRI and the two ends of the truncated pGEM-HE vector were re-ligated. The truncated pGEM-HE vector retained the 5′ and 3′ UTRs of the X. laevis β-globin gene for high level protein expression in frog oocytes. The SfoI-KpnI fragment of truncated pGEM-HE, which contains the T7 promoter, was replaced with the PvuII-KpnI fragment of pBluescript II KS, which contains the T3 promoter, to generate pJC32. The abbreviated multiple cloning site of pJC32 was then replaced with the multiple cloning site from pcDNA3.1(+) (Invitrogen, Carlsbad, Calif.) by ligating the 102 bp PmeI fragment of pcDNA3.1(+) into the 3 kb SmaI-EcoRV fragment of pJC32 to generate pJC34. […] The resulting vector, pJC39, contains three rare restriction sites downstream of the multiple cloning site to facilitate linearization prior to in vitro transcription using T3 RNA polymerase.
The full-length NR3B (B4 form) cDNA was then excised from pCMV6-XL4 by digestion with EcoRI and XbaI, and the 3.2 kb fragment was ligated into EcoRI/XbaI-digested pJC39. The resulting vector, pJC42, was linearized with PmeI, and in vitro transcription was performed using the mMessage mMachine T3 kit (Ambion, Inc., Austin, Tex.) according to the manufacturer's instructions.
Micropipettes were filled with 3 M KCl.

[2] = molecular target: T2, NR1/NR3A receptors (Rattus norvegicus, UniProt P35439+Q9R1M7); assay: Glycine-evoked whole-oocyte currents of NR1/NR3A receptors, two-electrode voltage recordings in Xenopus oocytes
T2 construct: Full-length cDNAs encoding NMDA receptor subunits were linearized and used as templates for synthesis of cRNA; expressed in transfected cells; host or cells: Xenopus laevis oocytes injected with cRNA
T2 sequence (Q9R1M7 24-1115 isoform Q9R1M7-2 limits assumed, other chains not shown): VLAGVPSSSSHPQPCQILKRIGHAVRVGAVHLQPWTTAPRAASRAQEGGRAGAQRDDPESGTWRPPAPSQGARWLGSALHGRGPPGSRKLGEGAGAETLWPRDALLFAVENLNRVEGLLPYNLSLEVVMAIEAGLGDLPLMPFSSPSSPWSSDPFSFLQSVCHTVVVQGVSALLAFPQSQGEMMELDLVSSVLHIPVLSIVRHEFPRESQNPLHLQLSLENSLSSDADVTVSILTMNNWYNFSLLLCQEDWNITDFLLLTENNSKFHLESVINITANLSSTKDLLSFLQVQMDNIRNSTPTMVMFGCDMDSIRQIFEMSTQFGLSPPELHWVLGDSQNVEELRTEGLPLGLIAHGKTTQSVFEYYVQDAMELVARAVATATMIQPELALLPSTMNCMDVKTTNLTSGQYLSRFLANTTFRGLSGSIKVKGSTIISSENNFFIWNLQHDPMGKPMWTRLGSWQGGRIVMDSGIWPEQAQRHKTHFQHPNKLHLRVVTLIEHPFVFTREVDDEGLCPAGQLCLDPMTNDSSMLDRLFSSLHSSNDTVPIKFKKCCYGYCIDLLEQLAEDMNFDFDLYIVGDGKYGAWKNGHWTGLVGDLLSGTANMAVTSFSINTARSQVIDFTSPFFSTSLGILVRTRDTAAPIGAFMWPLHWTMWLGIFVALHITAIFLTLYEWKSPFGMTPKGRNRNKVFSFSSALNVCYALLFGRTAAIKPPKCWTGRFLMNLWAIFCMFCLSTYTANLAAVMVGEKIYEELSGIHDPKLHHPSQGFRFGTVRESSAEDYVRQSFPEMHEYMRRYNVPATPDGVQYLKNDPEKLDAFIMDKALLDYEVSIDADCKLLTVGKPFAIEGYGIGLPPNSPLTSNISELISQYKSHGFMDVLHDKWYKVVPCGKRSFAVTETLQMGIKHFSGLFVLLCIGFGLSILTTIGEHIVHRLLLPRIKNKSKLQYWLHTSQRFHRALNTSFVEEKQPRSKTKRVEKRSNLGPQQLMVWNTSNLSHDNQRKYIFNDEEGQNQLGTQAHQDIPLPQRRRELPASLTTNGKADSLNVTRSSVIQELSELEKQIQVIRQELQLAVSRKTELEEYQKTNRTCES

[3] = system: cultured cerebrocortical neurons
[4] = system: cerebrocortical neurons; assay: Single-channel recording from outside-out patches of cerebrocortical neurons

With `O=C(O)c1cc(=O)c2c(Cl)cc(Cl)cc2[nH]1` [5,7-DCKA, 5,7-dichlorokynurenate] the “effect on glycine-evoked currents of NR1/NR3B receptors” value [1] was “blocks glycine activated currents; also recorded: virtually abolished”.
With `NC1(C(=O)O)CC1` [ACPC, 1-aminocyclopropanecarboxylic acid] the “effect on glycine-evoked currents of NR1/NR3B receptors” value [1] was “inhibited”.
With `N[C@H](CCCP(=O)(O)O)C(=O)O` [AP5, D-(−)-2-amino-5-phosphonopentanoate] the “effect on glycine-evoked currents of NR1/NR3B receptors at 10 μM” value [1] was “little or no effect” and the “effect on glycine-evoked currents of NR1/NR3A receptors at 10 μM” value [2] was “little or no effect”.
For `N[C@H](CO)C(=O)O` [D-serine], the “activation of NR1/NR3B receptors by the substance alone (without co-agonist)” value (“activation … (without co-agonist)” below) ([1]; Xenopus oocytes) was “evokes small NR1/NR3B currents alone; also recorded: activated NR1/NR3B receptors in the absence of glycine; also recorded: evoked small currents alone”, the “effect on glycine-evoked currents of NR1/NR3B receptors” value ([1]; Xenopus oocytes, glycine 10 μM, NMDA or L-glutamate 100 μM unless otherwise indicated) was “dose-dependently inhibits currents in the presence of glycine; also recorded: inhibited the glycine response” and the “activation of NR1/NR3A receptors by the substance alone” value ([2]; Xenopus oocytes) was “did not independently manifest any agonist activity”. For the same molecule, the “effect on glycine-evoked currents of NR1/NR3A receptors” value ([2]; Xenopus oocytes) was “even more potent antagonist”, the “effect on glycine-evoked bursting response of cultured neurons” value [3] was “inhibited” and the “glycine-responsive cells in which glycine-triggered bursting was inhibited” value [3] was 5 of 22. For the same molecule, the “effect on channel activity (NPo) evoked by 2.5 μM glycine” value [4] was “decreased” and the “effect on glycine-activated single channels of cerebrocortical neurons” value [4] was “inhibited”.
With `N[C@@H](CCC(=O)O)C(=O)O` [L-glutamate] the “activation … (without co-agonist)” value [1] was “did not evoke glycine-independent responses; also recorded: did not evoke a glycine-independent response”, the “effect on glycine-evoked currents of NR1/NR3B receptors” value [1] was “little or no effect; also recorded: did not potentiate glycine-evoked currents” and the “effect on glycine-evoked currents of NR1/NR3A receptors” value [2] was “did not potentiate glycine-evoked currents”.
For `C[C@]12N[C@H](Cc3ccccc31)c1ccccc12` [MK-801], the “sensitivity of NR1/NR3B receptors to open-channel blocker compared to NR1/NR2A receptors” value [1] was “drastically less sensitive” and the “sensitivity of NR1/NR3A receptors to open-channel blocker compared to NR1/NR2A receptors” value [2] was “drastically less sensitive”.
For `[Mg+2]` [Mg^2+], the “sensitivity of NR1/NR3B receptors to open-channel blocker compared to NR1/NR2A receptors” value [1] was “drastically less sensitive”, the “sensitivity of NR1/NR3A receptors to open-channel blocker compared to NR1/NR2A receptors” value [2] was “drastically less sensitive” and the “effect on channel activity (NPo) evoked by 2.5 μM glycine” value [4] was “little effect”. The “effect on glycine-activated single channels of cerebrocortical neurons” value [4] was “little effect”.
`CN[C@H](CC(=O)O)C(=O)O` [NMDA, N-methyl-D-aspartate] was tested, and the “activation … (without co-agonist)” value [1] was “did not evoke glycine-independent responses; also recorded: did not evoke a glycine-independent response”, the “effect on glycine-evoked currents of NR1/NR3B receptors” value [1] was “little or no effect; also recorded: did not potentiate glycine-evoked currents” and the “effect on glycine-evoked currents of NR1/NR3A receptors” value [2] was “did not potentiate glycine-evoked currents”.
`NCC(=O)O` [glycine] was tested, and the “recordings in which glycine triggered neuronal bursting” value [3] was 22 of 26.
For `NC1=N[C@H](O)[C@H]2[C@H]3O[C@]4(O)O[C@@H]([C@@H](O)[C@@]2(N1)[C@@H]4O)[C@]3(O)CO` [tetrodotoxin], the “effect on glycine-evoked bursting response of cultured neurons” value [3] was “inhibited”.
